Results taken from US20240409496A1, “SPERMINE DERIVATIVES AS HEPARIN ANTIDOTES” (CONSEJO SUPERIOR DE INVESTIGACIONES CIENTÍFICAS (CSIC), priority 2021, published 2024).

Legend:
heparinized mice = test: In vivo tail transection assay with mice; design: species or system mouse; conditions: for reversal of Hep activity in vivo (bleeding of heparinized mice): Hep 100 IU/kg i.v. followed by 2.2 or 4.4 mg/kg, blood collected 10 minutes, FIG. 3B; for blood loss of heparinized mice at the highest doses: Hep 100 IU/kg, highest dose (4.4 mg/kg)
Protocol: In vivo tail transection assays with mice: Eight-weeks old CD-1 male mice (Janvier-Labs) were used for the study. Animals were housed under a 12 h light: dark cycle in an environmentally controlled room and free access to water and food. Mice were randomly assigned into 6 groups (n=6 for each group). Animals were anesthetized by i.p. injections of 0.465 mg/kg xylazine (Rompun, Bayer DVM) and 1.395 mg/kg ketamine (Imalgene 100, Merial Laboratorios). After anesthetizing them, different solutions were injected intravenously according to the assigned group: Saline group (only saline was given), Hep group (Hep injection, 100 IU/kg), 3AC (two groups, Hep injection followed by injection of 3AC at 2.2 mg/kg or 4.4 mg/kg) and 3FF (two groups, Hep injection followed by injection of 3FF at 2.2 mg/kg or 4.4 mg/kg). Two additional control groups (n=3) were included in which only the ligand (3AC or 3FF) at the highest dose (4.4 mg/kg) was injected. At 5 minutes after injections, tails were transected at 5 mm from the tip and immediately inserted in a tube containing 1 ml of saline buffer immersed in a water bath at 37° C., where the blood draining out of the wound was collected for 10 minutes. The blood draining out from the wound was collected in each tube. Tails were let bleed during 10 minutes. The total blood volume in each tube was quantified by spectrophotometry (absorbance at 414 nm) from a standard curve that was constructed with known volumes of blood hemoglobin concentration and corresponding absorbance value. Statistical analysis of the data was done with Kaleida Graph 4.5.4 using ANOVA.
3FF and 3AC were tested in an in vivo coagulation model. It was thus performed the tail transection assay with mice after consecutive injection of Hep, and the drugs at two different doses each (FIG. 3B). The control groups injecting saline or Hep, and those corresponding to just the drugs were also included.

[1] = test system: freshly extracted mouse blood with Hep; test: Ex vivo blood coagulation assay; conditions: for reversal of anticoagulant effect of Hep in mouse blood (clot formation): Hep 130 μM, various ligand concentrations, 15 minutes, FIG. 3A
Protocol: Ex vivo blood coagulation assays: Freshly collected mouse blood was collected and directly used without further treatment. 300 μL aliquots were prepared. To them, Hep (130 μM), and various concentration of ligand (3AC or 3FF) were added. The samples of the different conditions were added to an Eppendorf tube and a picture was taken after 15 minutes. The clot formation was confirmed by turning around the Eppendorf vials.
Reversing the anticoagulant activity of heparin: In order to check the efficacy of the antidotes in a more representative environment, 3FF and 3AC were tested in real blood coagulation assays. Thus, it has been monitored the coagulation of freshly extracted mouse blood in the absence or presence of Hep, and upon addition of different concentrations of 3FF and 3AC.

[2] = Surface Plasmon Resonance (SPR) on heparin-functionalized chips; format: binding
Protocol: Surface Plasmon Resonance (SPR): Affinity experiments between inhibitors and heparin were performed on an Open SPR™(Nicoya). All measurements were performed at 25° C. using a working buffer of 25 mM Tris at pH 7.5. Biotin-loaded sensor chips (NICOYA) were further functionalized with streptavidine (50 μg/mL) and later with biotin-heparin (50 μg/mL). Binding experiments to heparin were performed by injecting inhibitors at desired concentrations and at a rate of 40 μL/min. Between binding assays, the surface was regenerated by exposure to an injection of 10 mM HCl. Fitting has been performed by Trace Drawer software using a ‘one-to-one two-state algorithm’, which considers a 1:1 binding with a further equilibrium like a conformational change. Results obtained from three independent experiments at three different concentrations of the ligands were fit globally to render the corresponding on/off rate constants and the apparent dissociation constants (KD^app Table 1, as shown below).
Binding of the spermine derivatives to the heparin target. Surface Plasmon Resonance (SPR) on heparin-functionalized chips were used to determine the apparent dissociation constant of selected molecules (KD^app, Table 1).

[FXa-Hep-ATIII] complex = Blood coagulation factor in vitro enzymatic assay (FXa/ATIII/Hep, chromogenic peptide hydrolysis); format: biochemical, human; conditions: for in vitro potency as Hep antidote (recovery of FXa activity), rank order: 1 μM of each binder, Hep 0.1 IU/mL, FIG. 2B; for activity as Hep antidote in the enzymatic assay compared with ciraparantag: percent hydrolysis at 30 min, FIG. 2C
Protocol: Blood coagulation factor in vitro enzymatic assays: Recombinant antithrombin Ill and coagulation Factor Xa were obtained from the Berichrom Heparin test, supplied by SIEMENS. Following the indications of the test kit, stock solutions were prepared as follows: Human antithrombin III (1 IU/mL), Factor Xa reagent (0.4 μg/mL, human plasma fraction with the additives Tris, sodium chloride and EDTA) and a chromogenic substrate specific for factor Xa (4 mM of Z-D-Leu-Gly-ArgANBA-methyl amide). On the other hand, 4-nitroaniline (Sigma Aldrich) was added to the substrate solution at a concentration of 1.6 mM and was used as internal standard to quantify the hydrolysis of the chromogenic substrate. Heparin (sodium salt from porcine intestinal mucosa, polydisperse, from 6000 to 30000 Daltons) was purchased from Sigma-Aldrich. All compounds were dissolved in mili-Q water at the desired stock concentrations prior to start the assays and kept at 4° C. Various concentrations of the ligand, heparin (0.1 IU/mL), human antithrombin Ill solution (3.5 μL) and Factor Xa reagent solution (35 μL) were added in order to an Eppendorf and brought to a total volume of 145 μL. Then, 20 μL of Reagent Substrate solution was added to start the experiment and the mixture was vigorously shaken at 25° C. 20 μL samples were taken at minutes 5/10/15/20/30/50/80/120, diluted with 40 μL of acetic acid (20% v/v), and injected in the analytical HPLC. The gradient ranged from 5% ACN (0.1% formic acid) in water (0.1% formic acid) to 100% ACN in 24 minutes using a 15×4.6 mm KROMAPHASE C18 5.0 μm column (retention time of cleaved chromophore 9.1 min, retention time of chromogenic substrate 13.9 min, retention time of 4-nitroaniline 15.4 min). Concentrations of reagents have been adjusted compared with previous studies with the intention to slow down the total exhaustion of peptide substrate. In this way the activity can be more carefully modulated and any change is easier to detect. FXa/ATIII activity was represented as percent of hydrolysis, which was calculated from the normalized area of cleaved peptide at 405 nm at each corresponding time point. Experiment carried out in absence of heparin was considered as maximum of activity while experiment with heparin and no ligand was considered as negative control (maximum inhibition of FXa by heparin). Concentration of heparin was selected for the measurement to render a significant inhibition within experimental time, while allowing the reaction to proceed.
In vitro inhibition of heparin activity. The effect of the binders as Hep antidotes can be tested in vitro using an enzymatic reaction related to the blood coagulation process (FIG. 2A). This test employs human recombinant coagulation factor Xa (FXa) and antithrombin III (ATIII), with the synthetic peptide Z-D-LGR-N(Me)ANBA as the substrate of the FXa protease to mimic the prothrombin to thrombin transformation that triggers blood coagulation. Heparin forms a ternary complex with ATIII and FXa with a low hydrolytic activity, as a model for the anticoagulation effect of Hep. The addition of an efficient Hep binder dissociates the [FXa-Hep-ATIII] complex, thus releasing the active form of FXa that cleaves the substrate. The peptide hydrolysis can be readily monitored by analytical HPLC thanks to the ANBA chromophore, as an accurate measurement of the reaction kinetics.
In parallel experiments, the addition of equal concentration (1 μM) of each of the binders produces a different level of recovery of the FXa activity. […] Actually, several selected molecules derived from spermine were tested in the enzymatic assay (FIG. 2C) most of them showing activity in the reversal of the heparin action.

## Oc1ccccc1CNCCCNCCCCNCCCNCc1ccc2c(c1)Cc1ccccc1-2 [Compound 3AC, 2-(16-(9H-fluoren-2-yl)-2,6,11,15-tetraazahexadecyl)phenol]
Heparinized mice
  reversal of Hep activity in vivo (bleeding of heparinized mice): efficient antidotes of Hep also in vivo, strongly reducing the bleeding of heparinized mice
  blood loss of heparinized mice at the highest doses: reversed to values very similar to those of the control group injected with saline
Heparinized mice; tail transection, mice
  in vivo reversal potency, 3AC compared with 3FF: more potent reversal agent than 3FF
[1]
  reversal of anticoagulant effect of Hep in mouse blood (clot formation): able to revert the anticoagulant effect of Hep in a dose-response manner
[1]; equal doses, qualitative
  ex vivo antidote quality, 3AC compared with 3FF: better antidote than 3FF
[2]
  affinity to Hep compared with ciraparantag: higher affinity to Hep than ciraparantag
[FXa-Hep-ATIII] complex
  in vitro potency as Hep antidote (recovery of FXa activity), rank order: <3AC
  activity as Hep antidote in the enzymatic assay compared with ciraparantag: even more potent

## Oc1ccccc1CNCCCNCCCCNCCCNCc1c(O)ccc2ccccc12 [Compound 3AF, 1-(16-(2-hydroxyphenyl)-2,6,11,15-tetraazahexadecyl)naphthalen-2-ol]
[FXa-Hep-ATIII] complex
  in vitro potency as Hep antidote (recovery of FXa activity), rank order: 3AF (open circles)<3FF

## Oc1ccccc1CNCCCNCCCCNCCCNCc1ccc2ccccc2c1O [Compound 3AG, 2-(16-(2-hydroxyphenyl)-2,6,11,15-tetraazahexadecyl)naphthalen-1-ol]
[FXa-Hep-ATIII] complex
  in vitro potency as Hep antidote (recovery of FXa activity), rank order: 3AG (rhombuses)<3AF

## Oc1ccccc1CNCCCNCCCCNCCCNCc1cccc2ccccc12 [Compound 3AL, 2-(16-(naphthalen-1-yl)-2,6,11,15-tetraazahexadecyl)phenol, reference compound]
[FXa-Hep-ATIII] complex
  in vitro potency as Hep antidote (recovery of FXa activity), rank order: 3AL (X symbols)≤3AG

## Oc1ccc2ccccc2c1CNCCCNCCCCNCCCNCc1c(O)ccc2ccccc12 [Compound 3FF, 1,1′-(2,6,11,15-tetraazahexadecane-1,16-diyl)bis(naphthalen-2-ol)]
Heparinized mice
  reversal of Hep activity in vivo (bleeding of heparinized mice): efficient antidotes of Hep also in vivo, strongly reducing the bleeding of heparinized mice
  blood loss of heparinized mice at the highest doses: reversed to values very similar to those of the control group injected with saline
[1]
  reversal of anticoagulant effect of Hep in mouse blood (clot formation): able to revert the anticoagulant effect of Hep in a dose-response manner
[2]
  affinity to Hep compared with ciraparantag: higher affinity to Hep than ciraparantag
[FXa-Hep-ATIII] complex
  in vitro potency as Hep antidote (recovery of FXa activity), rank order: 3FF (inverted solid triangles)<3AC
  activity as Hep antidote in the enzymatic assay compared with ciraparantag: comparable with the drug ciraparantag
